Experimental data published in US8951541B2, “Method of modifying dissolution rate of particles by addition of hydrophobic nanoparticles” (3M Innovative Properties Company, priority 2010, dated 2015).

Test: Rate of dissolution of acetaminophen and acetaminophen/nanoparticle mixtures in DIW by UV/Vis absorbance at 243 nm
Type: physicochemical
Conditions: 0.013 g in 1000 mL DIW
Procedure: The following procedure (similar to USP30-NF 25, Mar. 17, 2008) was used to measure the rate and intensity of dissolution of acetaminophen and acetaminophen/nanoparticle mixtures in Millipore H2O (i.e., DIW).
Three samples of acetaminophen were weighed out. One sample was used as a control sample (Comparative K). A pre-determined amount of surface modified nanoparticles were added to each of the other samples. Sample 14 was combined with 1 weight percent nanoparticles (0.013 g) and sample 15 was combined with 0.5 weight percent nanoparticles (0.0065 g). Each blended sample was prepared by adding the nanoparticles to the acetaminophen. […]
Each blended sample was then measured separately by adding to different glass beakers, each of which contained 1000 mL of DIW and a magnetic stir-bar. […] 0.013 g of the blended samples were measured out and added to the stirred DIW.
While the acetaminophen was being dissolved in the DIW, 1.5 mL samples of the DIW and acetaminophen mixtures were removed every two minutes by pipette. The UV/Vis spectra of the samples were immediately measured using a UV/Vis spectrophotometer (obtained from PerkinElmer, Waltham, Mass., under the trade designation “LAMBDA 35 UV/VIS SPECTROPHOTOMETER), specifically focusing on the 243 nm absorbance.
This was determined to be the final measured value needed for subsequent experiments. […]

CC(=O)Nc1ccc(O)cc1 [Comparative K, acetaminophen]
absorbance intensity at 243 nm (final measured value) (stirred, plateau value): approximately 0.86
Slope (slope between first two time points: change in absorbance at 243 nm/change in time, in seconds): 0.0029
